Our source for the EC50 values is patent US20250066338A1, “CERTAIN 3-AZABICYCLO[3.1.0]HEXANES AS GLP-1 RECEPTOR MODULATORS” (AstraZeneca AB, priority 2021, published 2025).

The term EC50 denotes the concentration that produces a half-maximal response. A lower EC50 goes with an effect from little substance.

The target in assay [1] is GLP-1R in EndoC-βH1 cells (Homo sapiens (Human), UniProt P43220). The assay can be described thus: EndoC cAMP Accumulation Assay. The note with it: EndoC-βH1 human pancreatic beta cell line; HTRF cAMP accumulation. It is filed as cell-based. The text has this:
EndoC cAMP Accumulation Assay
A HTRF cAMP assay (cAMP Gs dynamic kit; CisoBio Cat #62AM4PEJ) was used to identify agonists of GLP-1R in a pancreatic insulinoma cell line (EndoC-βH1). […] EndoC-βH1 cells have detectable GLP-1R messenger ribonucleic acid (mRNA) as detected by quantitative polymerase chain reaction (qPCR). […] The EndoC-βH1 cell line is a valid model of human beta cells and applicable for screenings to identify novel drug target candidates (Mol. Metab., 2018, 8, 144-157). CisBio HTRF cAMP kits are based on a competitive immunoassay using cryptate-labelled anti-cAMP antibody and d2-labeled cAMP. The detection kit is intended for the direct quantitative determination of cAMP. The specific signal (i.e. energy transfer) is inversely proportional to the concentration of cAMP in the standard or sample. Test compounds (10 mM in DMSO) were diluted into assay buffer (HBSS (Sigma #H8264) supplemented with 25 mM HEPES (Gibco #15630, pH 7.4), 0.1% BSA (Sigma #A3059) and 0.5 mM IBMX (Sigma #17018) included fresh on the day of the assay) into 96 well U-bottom plates (Greiner #650201). Diluted compounds were transferred to ECHO source polypropylene plates (Labcyte #P-05525) and dose response curves were dispensed acoustically using ECHO 550 into black shallow-well u-bottom 384-well HTRF Assay Plates (Corning 4514).
Cryovials of EndoC-H1 (supplied at 1×10e^7 cells/vial) were used directly for screening. The cryovials and were removed from N2 (1) and thawed rapidly in a 37° C. water bath. The cells were resuspended in assay buffer and centrifuged at 300 g for 5 min. Cells were resuspended in assay buffer at the appropriate concentration, typically at 12e5 cells per mL (3000 cells per well, dependent on cell batch) and 2.5 μL diluted cells were added to all wells of destination plate by Multidrop combi reagent dispenser (Thermofisher). The plates were incubated at rt for 30 min. The assay was stopped by adding 2.5 μL anti-cAMP cryptate solution to all wells and 2.5 μL cAMP-d2 solution (both diluted 1:20 in lysis buffer) to columns 1-22 by Combi drop. A volume of 2.5 μL cAMP-d2 solution was added to wells E23 to P24 and 2.5 μL lysis buffer added to wells A23 to D24 by multichannel pipette. The plates were incubated at rt for 1 h and read on an Envision plate reader using excitation wavelength of 320 nm and emission of […] and 660 nm.
Raw data from Envision is converted to % DeltaF according to the manufacturer's instructions. Dose response curves are analysed via 4-Parameter Logistical Analysis and assay plate Z′ values obtained. Samples are graphed as percentage (%) activation plots compared to GIP (1-42, Bachem H-5645) with assay window defined by negative control as basal cell cAMP levels and positive control are defined by maximum GIP (82.5 nM) signal. GLP1 (7-36 amide, Bachem H-6795) dose response curve was included on all plates.

The target of assay [2] is human GLP-1R receptor (Homo sapiens (Human), UniProt P43220, L260F). The assay can be described thus: CHOK1 GLP-1R cAMP Assay. The following applies: CHO-K1 cell line stably expressing human GLP-1R; HTRF cAMP; agonist activity. Format: cell-based. The method, then:
A cell line stably expressing the human GLP-1R receptor (NM 002062.5, including the naturally-occurring variant Leu260Phe) in a CHO-K1 (ATCC® CCL-61™) was used for assay.
GLP-1 receptor mediated agonist activity was determined in a cell based assay measuring cyclic adenosine monophosphate (cAMP) levels in cells using Homogeneous Time-Resolved Fluorescence (HTRF) cAMP detection kit (CisBio catalog #62AM4PEC, cAMP Gs Dynamic range kit). The cAMP detection method is based on a competitive immunoassay, in which cAMP produced by the cells and cAMP labeled with the dye d2 compete for binding to a Europium-Cryptate-labeled anti-cAMP antibody. The specific HTRF signal is inversely proportional to the concentration of cAMP.
Compounds were added to individual well in 384 well-assay plates (Greiner #784076) using an Echo (LabCyte) dispenser from 10 mM stocks. Varying concentration of compounds were added to wells, and DMSO was used to normalize each well to a volume of 100 nL. A dose response curve of GLP1(7-36)NH2 (Bachem H-6795) was included in each run. 5 μL of cAMP concentration response standards are applied in specified wells in the assay plates. Cryo-preserved cells are thawed and resuspended in assay buffer pre-heated to 37° C. (20 mM HEPES pH 7.4, lx Hank's Balanced Salt Solution (HBSS, Life Technologies #14065) supplemented with 0.1% (w/v) bovine serum albumin (Sigma, A-7030). Cells were centrifuged at 250*g for 5 min at rt, and resuspended in room tempered assay buffer to a final density of 0.16*10^6 cell/mL, to deliver 800 cells/well. 5 μL of assay buffer with 1 mM 3-isobutyl-1-methylxanthin (IBMX; Sigma cat I-7018) was dispensed per well in assay plates using a multidrop combi (Thermo Scientific) subsequently 5 μL of cell suspension was distributed to relevant wells in the assay using a multidrop dispenser. Assay plates were incubated 20 min at rt.
Detection reagents, Europium-Cryptate-labeled anti-cAMP antibody and cAMP labeled with the dye d2, are diluted in lysis buffer, provided by the manufacturer. 5 μL of each detection reagent is supplemented to each assay well using a multidrop dispenser. Assay plates are incubated in the dark for at least one h. The HTRF signal is measured using the HTRF module (excitation: 337 nm, emission A: 665 nm and emission B: 620 nm) in Pherastar FSX (BMG Labtech).
Raw data were converted to pM cAMP using the cAMP standard curve included in each run. Converted data were further analyzed in Genedata Screener (Genedata) and EC50 determinations were made from agonist dose-response curves analyzed with a curve fitting program using a 4-parameter logistic dose response equation (Equation y=A+((B−A)/1+((C/x)^D))) where A is no stimulation, B is full stimulation, C is the EC50 and D is the Hill slope). The percent effect was determined relative to a saturating concentration of a full GLP-1R agonist (GLP1(7-36)NH2 has 100% effect in this assay setup).
(In general: TR-FRET usually uses a lanthanide donor and a delayed reading to cut background.)

Chain of GLP-1R in EndoC-βH1 cells (P43220 24-463): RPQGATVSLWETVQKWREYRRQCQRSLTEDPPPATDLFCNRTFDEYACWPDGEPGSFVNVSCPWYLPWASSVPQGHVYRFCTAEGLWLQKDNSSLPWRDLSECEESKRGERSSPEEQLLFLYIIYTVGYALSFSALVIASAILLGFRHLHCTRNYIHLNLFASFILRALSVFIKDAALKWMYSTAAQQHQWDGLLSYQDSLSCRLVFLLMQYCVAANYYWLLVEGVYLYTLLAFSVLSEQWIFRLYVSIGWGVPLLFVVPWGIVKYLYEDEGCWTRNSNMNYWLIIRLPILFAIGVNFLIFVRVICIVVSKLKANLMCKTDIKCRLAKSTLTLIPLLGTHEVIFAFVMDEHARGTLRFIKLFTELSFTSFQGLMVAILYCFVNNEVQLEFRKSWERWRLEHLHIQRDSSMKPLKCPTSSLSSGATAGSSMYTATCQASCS
Chain of human GLP-1R receptor (P43220 24-463 L260F): as the sequence (P43220 24-463) above, with L237F counted along it

Take “2-(((1R,5S,6S)-6-(6-((4-Cyano-2-fluorobenzyl)oxy)pyridin-2-yl)-3-azabicyclo[3.1.0]hexan-3-yl)methyl)-4-methoxy-1-(((S)-oxetan-2-yl)methyl)-1H-benzo[d]imidazole-6-carboxylic acid [Example 5]”: the EC50 in assay [1] was found to be 200 nM; in assay [2], 240 nM. Consider `COc1cc(C(=O)O)cc2c1nc(CN1C[C@@H]3[C@H](C1)[C@H]3c1nc(OCc3ccc(C#N)cc3F)ccc1F)n2C[C@@H]1CCO1` [Example 1, 2-(((1R,5S,6S)-6-(6-((4-Cyano-2-fluorobenzyl)oxy)-3-fluoropyridin-2-yl)-3-azabicyclo[3.1.0]hexan-3-yl)methyl)-4-methoxy-1-(((S)-oxetan-2-yl)methyl)-1H-benzo[d]imidazole-6-carboxylic acid], for which the EC50 in assay [1] turned out to be 5 nM; in assay [2], 7.7 nM. In the case of `N#Cc1ccc(COc2ccc(F)c([C@H]3[C@@H]4CN(Cc5nc6ccc(C(=O)O)cc6n5C[C@@H]5CCO5)C[C@@H]43)n2)c(F)c1` [Example 2, 2-(((1R,5S,6S)-6-(6-((4-Cyano-2-fluorobenzyl)oxy)-3-fluoropyridin-2-yl)-3-azabicyclo[3.1.0]hexan-3-yl)methyl)-1-(((S)-oxetan-2-yl)methyl)-1H-benzo[d]imidazole-6-carboxylic acid], the results for the EC50 in assay [1] and in assay [2] were 26 nM and 30 nM, respectively. With `N#Cc1ccc(COc2cccc([C@H]3[C@@H]4CN(Cc5nc6ccc(C(=O)O)cc6n5C[C@@H]5CCO5)C[C@@H]43)n2)c(F)c1` [Example 3, 2-(((1R,5S,6S)-6-(6-((4-Cyano-2-fluorobenzyl)oxy)pyridin-2-yl)-3-azabicyclo[3.1.0]hexan-3-yl)methyl)-1-(((S)-oxetan-2-yl)methyl)-1H-benzo[d]imidazole-6-carboxylic acid], the values for the EC50 in assay [1] and in assay [2] were 21 nM and 75 nM, respectively. Taken in the same sequence, the figures for `COc1cc(C(=O)O)cc2c1nc(CN1C[C@@H]3[C@H](C1)[C@H]3c1cccc(OCc3ccc(C#N)cc3F)n1)n2C[C@@H]1CCO1` [Example 4, 2-(((1R,5S,6S)-6-(6-((4-Cyano-2-fluorobenzyl)oxy)pyridin-2-yl)-3-azabicyclo[3.1.0]hexan-3-yl)methyl)-4-methoxy-1-(((S)-oxetan-2-yl)methyl)-1H-benzo[d]imidazole-6-carboxylic acid] were 5.8 nM and 12 nM.

In assay [1], `N#Cc1ccc(COc2cccc([C@H]3[C@@H]4CN(Cc5nc6ccc(C(=O)O)cc6n5C[C@@H]5CCCO5)C[C@@H]43)n2)c(F)c1` [Example 6, 2-(((1R,5S,6S)-6-(6-((4-Cyano-2-fluorobenzyl)oxy)pyridin-2-yl)-3-azabicyclo[3.1.0]hexan-3-yl)methyl)-1-(((S)-tetrahydrofuran-2-yl)methyl)-1H-benzo[d]imidazole-6-carboxylic acid] had an EC50 of 290 nM.

With `CCn1cncc1Cn1c(CN2C[C@@H]3[C@H](C2)[C@H]3c2nc(OCc3ccc(C#N)cc3F)ccc2F)nc2c(OC)cc(C(=O)O)cc21` [Example 7, 2-(((1R,5S,6r)-6-(6-((4-Cyano-2-fluorobenzyl)oxy)-3-fluoropyridin-2-yl)-3-azabicyclo[3.1.0]hexan-3-yl)methyl)-1-((1-ethyl-1H-imidazol-5-yl)methyl)-4-methoxy-1H-benzo[d]imidazole-6-carboxylic acid], the EC50 in assay [1] amounted to 38 nM; in assay [2] it was 17 nM.

In the case of `N#Cc1ccc(COc2cccc([C@H]3[C@@H]4CN(Cc5nc6c(Cl)cc(C(=O)O)cc6n5C[C@@H]5CCO5)C[C@@H]43)n2)c(F)c1` [Example 8, 4-Chloro-2-(((1R,5S,6S)-6-(6-((4-cyano-2-fluorobenzyl)oxy)pyridin-2-yl)-3-azabicyclo[3.1.0]hexan-3-yl)methyl)-1-(((S)-oxetan-2-yl)methyl)-1H-benzo[d]imidazole-6-carboxylic acid], the EC50 was determined as 10 nM in assay [1] and 20 nM in assay [2]. Taken in the same sequence, the figures for `Cc1cc(C(=O)O)cc2c1nc(CN1C[C@@H]3[C@H](C1)[C@H]3c1cccc(OCc3ccc(C#N)cc3F)n1)n2C[C@@H]1CCO1` [Example 9, 2-(((1R,5S,6S)-6-(6-((4-Cyano-2-fluorobenzyl)oxy)pyridin-2-yl)-3-azabicyclo[3.1.0]hexan-3-yl)methyl)-4-methyl-1-(((S)-oxetan-2-yl)methyl)-1H-benzo[d]imidazole-6-carboxylic acid] were 56 nM and 78 nM.

With `CCn1cncc1Cn1c(CN2C[C@@H]3[C@H](C2)[C@H]3c2cccc(OCc3ccc(C#N)cc3F)n2)nc2ccc(C(=O)O)cc21` [Example 10, 2-(((1R,5S,6r)-6-(6-((4-Cyano-2-fluorobenzyl)oxy)pyridin-2-yl)-3-azabicyclo[3.1.0]hexan-3-yl)methyl)-1-((1-ethyl-1H-imidazol-5-yl)methyl)-1H-benzo[d]imidazole-6-carboxylic acid], the EC50 in assay [1] came to 88 nM; in assay [2], 42 nM. In the same order, the values of `COc1cc(C(=O)O)cc2c1nc(CN1C[C@@H]3[C@H](C1)[C@H]3c1cccc(OCc3ccc(Cl)cc3F)n1)n2C[C@@H]1CCO1` [Example 11, 2-(((1R,5S,6S)-6-(6-((4-Chloro-2-fluorobenzyl)oxy)pyridin-2-yl)-3-azabicyclo[3.1.0]hexan-3-yl)methyl)-4-methoxy-1-(((S)-oxetan-2-yl)methyl)-1H-benzo[d]imidazole-6-carboxylic acid] are 6.5 nM and 17 nM. In the same order, the values of `CCn1cncc1Cn1c(CN2C[C@@H]3[C@H](C2)[C@H]3c2cccc(OCc3ccc(Cl)cc3F)n2)nc2ccc(C(=O)O)cc21` [Example 12, 2-(((1R,5S,6r)-6-(6-((4-Chloro-2-fluorobenzyl)oxy)pyridin-2-yl)-3-azabicyclo[3.1.0]hexan-3-yl)methyl)-1-((1-ethyl-1H-imidazol-5-yl)methyl)-1H-benzo[d]imidazole-6-carboxylic acid] are 150 nM and 97 nM.
